Data: patent US20240208992A1, “MACROCYCLES AS CFTR MODULATORS” (Idorsia Pharmaceuticals Ltd, priority 2021, published 2024)

Target: human F508del-CFTR (Homo sapiens, UniProt P13569, DEL508-508)
Assay: F508del-CFTR cell surface expression (corrector activity), DiscoveRx ß-galactosidase complementation chemiluminescence assay in recombinant U2OS cell line;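 also: U2OS cells co-expressing ProLink-tagged F508del-CFTR and a membrane-anchored enzyme acceptor, where more surface CFTR restores β-galactosidase activity measured by chemiluminescence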
Settings: for EC50: EC50, F508del-CFTR cell surface expression, U2OS cells, 16h compound incubation, geomean values; for Emax: in relation to Emax of corrector lumacaftor (=100%), arithmetic mean values

Sequence of human F508del-CFTR (P13569 with tags, fused parts or gaps DEL508-508): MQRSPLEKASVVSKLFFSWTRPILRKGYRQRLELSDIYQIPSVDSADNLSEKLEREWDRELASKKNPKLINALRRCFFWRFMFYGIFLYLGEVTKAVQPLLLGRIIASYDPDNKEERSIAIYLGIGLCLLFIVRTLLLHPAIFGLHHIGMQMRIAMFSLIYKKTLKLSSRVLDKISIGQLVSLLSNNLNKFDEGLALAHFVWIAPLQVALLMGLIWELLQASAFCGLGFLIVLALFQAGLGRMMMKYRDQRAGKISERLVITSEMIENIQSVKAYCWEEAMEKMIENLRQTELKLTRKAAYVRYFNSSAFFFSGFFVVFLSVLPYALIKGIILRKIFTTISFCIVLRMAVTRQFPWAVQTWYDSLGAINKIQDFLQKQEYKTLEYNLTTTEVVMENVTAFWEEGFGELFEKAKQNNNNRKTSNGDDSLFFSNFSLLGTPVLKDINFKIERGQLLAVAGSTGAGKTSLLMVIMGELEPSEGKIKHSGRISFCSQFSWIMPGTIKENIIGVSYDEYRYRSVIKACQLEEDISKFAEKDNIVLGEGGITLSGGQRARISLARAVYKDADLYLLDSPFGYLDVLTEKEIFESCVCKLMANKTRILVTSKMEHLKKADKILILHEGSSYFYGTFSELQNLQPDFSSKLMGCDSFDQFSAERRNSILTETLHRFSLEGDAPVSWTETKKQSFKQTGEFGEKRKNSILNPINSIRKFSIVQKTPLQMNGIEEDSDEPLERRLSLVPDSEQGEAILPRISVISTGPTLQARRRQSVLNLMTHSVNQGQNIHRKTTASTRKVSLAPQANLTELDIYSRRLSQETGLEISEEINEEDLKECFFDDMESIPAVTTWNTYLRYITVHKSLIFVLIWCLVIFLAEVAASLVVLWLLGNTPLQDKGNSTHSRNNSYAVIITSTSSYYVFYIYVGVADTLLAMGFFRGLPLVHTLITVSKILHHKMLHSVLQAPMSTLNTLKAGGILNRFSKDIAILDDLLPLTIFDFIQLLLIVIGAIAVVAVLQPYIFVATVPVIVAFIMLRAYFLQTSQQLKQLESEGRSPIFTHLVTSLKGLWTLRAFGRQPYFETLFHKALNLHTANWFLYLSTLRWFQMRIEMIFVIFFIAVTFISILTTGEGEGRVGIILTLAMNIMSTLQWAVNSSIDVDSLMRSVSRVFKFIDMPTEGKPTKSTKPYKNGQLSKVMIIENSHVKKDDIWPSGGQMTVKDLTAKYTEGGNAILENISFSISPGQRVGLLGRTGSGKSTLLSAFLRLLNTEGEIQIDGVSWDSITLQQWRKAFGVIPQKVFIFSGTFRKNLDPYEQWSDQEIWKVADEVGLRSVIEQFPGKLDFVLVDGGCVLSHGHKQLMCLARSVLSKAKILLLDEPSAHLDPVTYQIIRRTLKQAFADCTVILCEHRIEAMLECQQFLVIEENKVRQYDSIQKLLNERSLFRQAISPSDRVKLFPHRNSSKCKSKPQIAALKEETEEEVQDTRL

| SMILES | EC50 [nM] | Emax (U2OS) [%] | Emax [%] |
| --- | --- | --- | --- |
| CC(C)C[C@H]1C(=O)N2CCN(c3ccccc3)C[C@H]2C(=O)N[C@H](Cc2ccccc2)COc2cnc3ccc(F)cc3c2C(=O)N[C@H](C(=O)NCCc2cc(C3CC3)no2)CC(=O)N1C [Example 524, (9S,13S,19aR,22R)-22-benzyl-N-(2-(3-cyclopropylisoxazol-5-yl)ethyl)-5-fluoro-13-isobutyl-12-methyl-7,11,14,20-tetraoxo-18-phenyl-7,8,9,10,11,12,13,14,17,18,19,19a,20,21,22,23-hexadecahydro-16H-pyrazino[2′,11:6,7][1]oxa[4,7,10,14]tetraazacycloheptadecino[17,16-c]quinoline-9-carboxamide] | 60 | 339 | – |
| CC(C)C[C@H]1C(=O)N2CCN(c3ccccc3)C[C@H]2C(=O)N[C@H](Cc2ccccc2)COc2cnc3ccc(F)cc3c2C(=O)N[C@H](C(=O)NCCc2nc(C3CC3)no2)CC(=O)N1C [Example 525, (9S,13S,19aR,22R)-22-benzyl-N-(2-(3-cyclopropyl-1,2,4-oxadiazol-5-yl)ethyl)-5-fluoro-13-isobutyl-12-methyl-7,11,14,20-tetraoxo-18-phenyl-7,8,9,10,11,12,13,14,17,18,19,19a,20,21,22,23-hexadecahydro-16H-pyrazino[2′,11:6,7][1]oxa[4,7,10,14]tetraazacycloheptadecino[17,16-c]quinoline-9-carboxamide] | 56 | 288 | – |
| COc1cc2c(cn1)OC[C@@H](Cc1ccccc1)NC(=O)[C@H]1CCCCN1C(=O)[C@H](CC(C)C)N(C)C(=O)C[C@@H](C(=O)NCCc1cc(C3CC3)on1)NC2=O [Example 526, (7S,11S,17aR,20R)-20-benzyl-N-(2-(5-cyclopropylisoxazol-3-yl)ethyl)-11-isobutyl-3-methoxy-10-methyl-5,9,12,18-tetraoxo-5,6,7,8,9,10,11,12,15,16,17,17a,18,19,20,21-hexadecahydro-14H-dipyrido[2,1-f:4′,3′-p][1]oxa[4,7,10,14]tetraazacycloheptadecine-7-carboxamide] | 394 | – | 167 |
| Cc1cc(CCNC(=O)[C@@H]2CC(=O)N(C)[C@@H](CC(C)C)C(=O)N3CCCC[C@H]3C(=O)N[C@H](Cc3ccccc3)COc3cnc4ccc(Cl)cc4c3C(=O)N2)on1 [Example 527, (9S,13S,19aR,22R)-22-benzyl-5-chloro-13-isobutyl-12-methyl-N-(2-(3-methylisoxazol-5-yl)ethyl)-7,11,14,20-tetraoxo-7,8,9,10,11,12,13,14,17,18,19,19a,20,21,22,23-hexadecahydro-16H-pyrido[2′,11:6,7][1]oxa[4,7,10,14]tetraazacycloheptadecino[17,16-c]quinoline-9-carboxamide] | 151 | 318 | – |
| COc1cccc(CCNC(=O)[C@@H]2CC(=O)N(C)[C@@H](CC(C)C)C(=O)N3CCCC[C@@H]3C(=O)N[C@H](Cc3ccccc3)COc3cnc4ccc(Cl)cc4c3C(=O)N2)c1 [Example 528, (9S,13S,19aR,22R)-22-benzyl-5-chloro-13-isobutyl-N-(3-methoxyphenethyl)-12-methyl-7,11,14,20-tetraoxo-7,8,9,10,11,12,13,14,17,18,19,19a,20,21,22,23-hexadecahydro-16H-pyrido[2′,11:6,7][1]oxa[4,7,10,14]tetraazacycloheptadecino[17,16-c]quinoline-9-carboxamide] | 321 | 337 | – |
| COc1cc2c(cn1)OC[C@@H](Cc1ccccc1)NC(=O)[C@H]1CCCCN1C(=O)[C@H](CC(C)C)N(C)C(=O)C[C@@H](C(=O)NCCc1nc(C3CC3)no1)NC2=O [Example 529, (7S,11S,17aR,20R)-20-benzyl-N-(2-(3-cyclopropyl-1,2,4-oxadiazol-5-yl)ethyl)-11-isobutyl-3-methoxy-10-methyl-5,9,12,18-tetraoxo-5,6,7,8,9,10,11,12,15,16,17,17a,18,19,20,21-hexadecahydro-14H-dipyrido[2,1-f:2′,3′-p][1]oxa[4,7,10,14]tetraazacycloheptadecine-7-carboxamide] | 947 | 206 | – |
| COc1cccc(CCNC(=O)[C@@H]2CC(=O)N(C)[C@@H](CC(C)C)C(=O)N(C)CC(=O)N[C@H](Cc3ccccc3)COc3ncc4ccccc4c3C(=O)N2)c1 [Example 530] | 334 | 353 | – |
| COc1cccc(CCNC(=O)[C@@H]2CC(=O)N(C)[C@@H](CC(C)C)C(=O)N(C)CC(=O)N[C@H](Cc3ccccc3)COc3ccc4cc(C)oc4c3C(=O)N2)c1 [Example 531, (8R,14S,18S)-8-benzyl-14-isobutyl-N-(3-methoxyphenethyl)-2,12,15-trimethyl-10,13,16,20-tetraoxo-7,8,9,10,11,12,13,14,15,16,17,18,19,20-tetradecahydrobenzofuro[7,6-p][1]oxa[4,7,10,14]tetraazacycloheptadecine-18-carboxamide] | 265 | 336 | – |
| Cc1cc2ccc3c(c2o1)C(=O)N[C@H](C(=O)NCCc1cc(C2CC2)no1)CC(=O)N(C)[C@@H](CC(C)C)C(=O)N(C)CC(=O)N[C@H](Cc1ccccc1)CO3 [Example 532, (8R,14S,18S)-8-benzyl-N-(2-(3-cyclopropylisoxazol-5-yl)ethyl)-14-isobutyl-2,12,15-trimethyl-10,13,16,20-tetraoxo-7,8,9,10,11,12,13,14,15,16,17,18,19,20-tetradecahydrobenzofuro[7,6-p][1]oxa[4,7,10,14]tetraazacycloheptadecine-18-carboxamide] | 397 | 375 | – |
| COc1cc(CCNC(=O)[C@@H]2CC(=O)N(C)[C@@H](CC(C)C)C(=O)N3CCCC[C@@H]3C(=O)N[C@H](Cc3ccccc3)COc3cc(C)nc(OC)c3C(=O)N2)on1 [Example 533, (7S,11S,17aR,20R)-20-benzyl-11-isobutyl-4-methoxy-N-(2-(3-methoxyisoxazol-5-yl)ethyl)-2,10-dimethyl-5,9,12,18-tetraoxo-5,6,7,8,9,10,11,12,15,16,17,17a,18,19,20,21-hexadecahydro-14H-dipyrido[2,1-f:3′,4′-p][1]oxa[4,7,10,14]tetraazacycloheptadecine-7-carboxamide] | 221 | 352 | – |
| Cc1cc(CCNC(=O)[C@@H]2CC(=O)N(C)[C@@H](CC(C)C)C(=O)N3CCCC[C@@H]3C(=O)N[C@H](Cc3ccccc3)COc3cnc4cccc(F)c4c3C(=O)N2)on1 [Example 534, (9S,13S,19aR,22R)-22-benzyl-6-fluoro-13-isobutyl-12-methyl-N-(2-(3-methylisoxazol-5-yl)ethyl)-7,11,14,20-tetraoxo-7,8,9,10,11,12,13,14,17,18,19,19a,20,21,22,23-hexadecahydro-16H-pyrido[2′,1′:6,7][1]oxa[4,7,10,14]tetraazacycloheptadecino[17,16-c]quinoline-9-carboxamide] | 273 | 394 | – |
| COc1cccc(CCNC(=O)[C@@H]2CC(=O)N(C)[C@@H](CC(C)C)C(=O)N3CCCC[C@@H]3C(=O)N[C@H](Cc3ccccc3)COc3cnc4cccc(F)c4c3C(=O)N2)c1 [Example 535, (9S,13S,19aR,22R)-22-benzyl-6-fluoro-13-isobutyl-N-(3-methoxyphenethyl)-12-methyl-7,11,14,20-tetraoxo-7,8,9,10,11,12,13,14,17,18,19,19a,20,21,22,23-hexadecahydro-16H-pyrido[2′,1′:6,7][1]oxa[4,7,10,14]tetraazacycloheptadecino[17,16-c]quinoline-9-carboxamide] | 407 | 424 | – |
| COc1cccc(CCNC(=O)[C@@H]2CC(=O)N(C)[C@@H](CC(C)C)C(=O)N3CCN(c4ccccc4)C[C@@H]3C(=O)N[C@H](Cc3ccccc3)COc3ccc4nc(C)oc4c3C(=O)N2)c1 [Example 536, (8S,12S,18aR,21R)-21-benzyl-12-isobutyl-N-(3-methoxyphenethyl)-4,11-dimethyl-6,10,13,19-tetraoxo-17-phenyl-6,7,8,9,10,11,12,13,16,17,18,18a,19,20,21,22-hexadecahydro-15H-oxazolo[4′,5′:5,6]benzo[1,2-p]pyrazino[2,1-f][1]oxa[4,7,10,14]tetraazacycloheptadecine-8-carboxamide] | 175 | 358 | – |
| COc1cccc(CCNC(=O)[C@@H]2CC(=O)N(C)[C@@H](CC(C)C)C(=O)N3CC[C@@H](C3)C(=O)N[C@H](Cc3ccccc3)COc3cnc4ccc(F)cc4c3C(=O)N2)c1 [Example 537, (73S,4R,9S,13S)-4-benzyl-16-fluoro-9-isobutyl-N-(3-methoxyphenethyl)-10-methyl-6,8,11,15-tetraoxo-2-oxa-5,10,14-triaza-1(3,4)-quinolina-7(3,1)-pyrrolidinacyclopentadecaphane-13-carboxamide] | 384 | 294 | – |
| COc1cccc(CCNC(=O)[C@@H]2CC(=O)N(C)[C@@H](CC(C)C)C(=O)N3CCN(c4ccccc4)C[C@@H]3C(=O)N[C@H](Cc3ccccc3)COc3ccnc(OC)c3C(=O)N2)c1 [Example 538, (7S,11S,20R,22aR)-20-benzyl-7-isobutyl-14-methoxy-N-(3-methoxyphenethyl)-8-methyl-6,9,13,22-tetraoxo-2-phenyl-1,3,4,6,7,8,9,10,11,12,13,19,20,21,22,22a-hexadecahydro-2H-pyrazino[2,1-f]pyrido[3,4-p][1]oxa[4,7,10,14]tetraazacycloheptadecine-11-carboxamide] | 80 | 340 | – |
| CC(C)C[C@H]1C(=O)N(C)[C@@H](CC2CCC(F)(F)CC2)C(=O)N[C@H](Cc2ccccc2)COc2cnc3ccc(F)cc3c2C(=O)N[C@H](C(=O)NCCc2noc(C3CC3)n2)CC(=O)N1C [Example 539, (3S,7S,10R,13R)-13-benzyl-N-(2-(5-cyclopropyl-1,2,4-oxadiazol-3-yl)ethyl)-10-((4,4-difluorocyclohexyl)methyl)-20-fluoro-7-isobutyl-6,9-dimethyl-1,5,8,11-tetraoxo-1,2,3,4,5,6,7,8,9,10,11,12,13,14-tetradecahydro-[1]oxa[4,7,10,14]tetraazacycloheptadecino[17,16-c]quinoline-3-carboxamide] | 95 | – | 391 |
